Legend:
NHDF = test: Building of collagen fiber bundle in collagen gel with heparin, SEM observation; format: cell-based, human; conditions: 1% heparin at final, 5 days incubation, FIG. 3
Method: A collagen solution was prepared by mixture of 0.5% type-I collagen: 5×DMEM: 200 mM HEPES: 2.2% NaHCO3: 0.1 N NaOH: FBS: water at a ratio of 4:4:2:2:1:2:3 (performed while cooling).
A lower-layer collagen solution was prepared by mixing collagen solution with water at a ratio of 9 to 1.
The lower-layer collagen solution was dispensed into the respective wells of a 48-well plate in a volume of 100 μl/well.
The collagen solution was mixed with the cell suspension at a ratio of 9 to 1 (volume) and then dispensed into the respective wells in a volume of 300 μl/well.
The addition of 1.8% Heparin/10% FBS-DMEM was performed in a volume of 500 μl/well (1% Heparin/well at final).
Incubation was carried out in the CO2 incubator (5 days).
A sample for SEM observation was obtained.

Normal human fibroblasts [1] = test: Toxicity of farrerol on fibroblasts, MTT assay (WST-8); format: cell-based; conditions: 24, 48 and 72 hours after addition, any of the concentrations considered
Method: 1. Fibroblasts grown to 80% confluency were dispersed with 0.05% Trypsin/EDTA. The dispersant was seeded on 96 wells/plate at a concentration of 3×10^3 cells/well. 2. […] 3. […] 4. Absorbance was measured at a measurement wavelength of 450 nm and a reference wavelength of 650 nm.

Normal human fibroblasts [2] = test: Model of defective dermal tissue with wound (punched collagen gel), Example 6; format: cell-based; conditions: FIG. 4
Method: The procedures will be described below. The results are represented in FIG. 4.
1) Normal human fibroblasts grown to 80% confluency were dispersed with 0.05% Trypsin/EDTA. The fibroblasts were seeded at a cell density of 3×10^5 cells/25 cm^2.
3) A collagen gel was prepared by adding a collagen medium solution to the culture obtained by culturing under each of the conditions in a manner similar to Example 2. The prepared collagen gel was then suspension-cultured for 1 week in the same medium as that of the culture condition of (2).
4) When the size of a collagen gel was reduced from one at the time of being prepared by the addition of the collagen medium solution to a size of about ⅕ to 1/10, the center portion of the gel was punched out in a donut form by a disposable biopsy punch with a diameter of 3 mm. As a result, a “wound model” was prepared.
5) A 6-well plate was prepared and 5 μl of collagen was then dropped on the center portion of the well. Subsequently, the collagen gel of the wound model was mounted thereon and incubated at 37° C. for 15 minutes.
6) When the dropped collagen was solidified and the gel was attached to the bottom of the well, 3 ml of the medium with the same condition as that of (3) was added, followed by culturing as a “model of defective dermal tissue with wound”. Subsequently, the process of closing up the wound area of the collagen gel was visually observed.

[3] = tested on: Normal human epidermal keratinocytes; test: Cell proliferation effect of farrerol on keratinocytes (direct evaluation, cell count); format: cell-based; conditions: FIG. 7
Method: 3) After 24 hours, 48 hours, and 72 hours from the sample addition, the cells were dispersed with 0.05% Trypsin/EDTA and the number thereof was then counted by a blood cell counter. By the way, in Experiment 1, the evaluation for WST-8 was used as an indicator of the number of cells. Since such a method is provided for indirect evaluation of the number of cells by acting on […] in mitochondria, the present study directly count the number of cells.

Normal human fibroblasts [4] = test: Screening with wound model (punched collagen gel), Example 11; format: cell-based
Method: The fractions containing the single ingredients obtained as described above are provided as test substances and the effect of each test substance to construct collagen is then evaluated to screen the substance with a wound-healing effect. The specific procedures will be described later.
Using a “wound model” provided with a defect area formed by punching a collagen gel containing animal fibroblasts, the degree of filling or reduction of the defect area in the presence of a test substance will be observed. The procedures are as follows.
1) Normal human fibroblasts grown to 80% confluency in preculture were dispersed with 0.05% Trypsin/EDTA. The fibroblasts were then seeded on a plate at a cell density of 3×10^5 cells/25 cm^2 (1×10^4 cells/cm^2).
3) A collagen gel was prepared by adding a collagen medium solution to the obtained culture in a manner similar to Example 3. The fibroblasts in the collagen gel were cultured using the medium used in (2). The concentration of the test substance in the medium corresponded to the concentration of the medium of (2).
4) After culturing for 1 week, the size of a collagen gel was reduced from one at the time of being prepared by the addition of the collagen medium solution to a size of about ⅕ to 1/10. Subsequently, the center portion of the collagen gel was punched out in a donut form by a disposable biopsy punch with a diameter of 3 mm. As a result, a “wound model” was prepared.
5) A 6-well plate was prepared and 5 μl of the collagen solution was then dropped on the center portion of the well. Subsequently, the collagen gel of the wound model was mounted thereon and incubated at 37° C. for 15 minutes, allowing the collagen gel to be attached on the bottom of the well.
6) Subsequently, 3 ml of the same medium as that of (2) was added to each of the wells and the fibroblasts in the above-mentioned collagen gel was then cultured for 7 days. During the culture, the process of closing up the wound area of the collagen gel was visually observed.

[5] = tested on: epidermal keratinocytes and fibroblasts; test: Influence on fibroblasts through epidermal keratinocytes, amount of procollagen produced (PIP EIA); format: cell-based, human
Method: The method is based on one described in Eming SA et al., Hum. Gene. Ther., 9 (4), 529-39 (1998).
DAY 1: The cells are seeded on a 24-well plate at a cell density of 3×10^4 cells/well. […] DAY 7: The supernatant of the culture is collected.
DAY 3: The cells are seeded on a 24-well plate at a cell density of 2.5×10^4 cells/well. DAY 7: The plate is washed with PBS and the culture supernatant (900 μl) of the epidermal keratinocytes is then added, followed by culturing for 48 hours. DAY 9: The plate is washed with PBS and serum-free DMEM and the medium is then replaced with 500 μl of serum-free DMEM, followed by culturing for 2 hours. The supernatant of the culture is collected and the amount of procollagen in the centrifuged supernatant (15000 rpm, 5 sec.) was then measured depending on the method described below. […]
4) A standard curve was formed by plotting absorbance values at a wavelength of […] while the absorbance of the medium was set to zero as a reference. Then, the PIP concentration was read out from the corresponding absorbance of the test substance.

Normal human fibroblasts [6] = test: Wound-healing model (punched three-dimensional collagen gel), behavior of fibroblasts; format: cell-based; conditions: 10^−6 ml/ml-DMEM farrerol, after 24 hours, vs farrerol-free group
Excerpt: 1) The culture of fibroblasts obtained by Protocol 4 of Example 1 and the collagen medium solution were mixed together at a ratio of 1:9 (volume) and then suspension-cultured in a 10%-FBS medium for 1 week.
2) When the size of a collagen gel was reduced from one at the time of being prepared by the addition of the collagen medium solution to a size of about ⅕ to 1/10, the center portion of the gel was punched out by a disposable biopsy punch with a diameter of 3 mm.
3) A 6-well plate was prepared and 15 μl of the collagen solution was then dropped on the center of the well. Subsequently, the punched three-dimensional collagen gel was mounted thereon and incubated for 10 minutes (37° C., 5% CO2).
4) When the dropped collagen was solidified and the three-dimensional collagen gel was attached to the bottom of the well, 10% FBS-DMEM, 0.1% heparin/10% FBS-DMEM, and 1.0% heparin/10% FBS-DMEM were added in a volume of 3 ml/well.

[7] = tested on: Normal human epidermal keratinocytes
Method: 1) Normal human epidermal keratinocytes grown to 80% confluency were dispersed with 0.05% Trypsin/EDTA. The dispersant was seeded on 96 wells/plate at a concentration of 3×10^3 cells/well and 6×10^3 cells/well.
4) Absorbance (OD value) was measured at a measurement wavelength of 450 nm and a reference wavelength of 650 nm.

Cc1c(O)c(C)c2c(c1O)C(=O)CC(c1ccc(O)cc1)O2 (centres unmarked) [farrerol]
building of a collagen fiber bundle (NHDF): prevents an inhibitory effect of heparin on the building of a collagen fiber bundle | cytotoxicity (Normal human fibroblasts [1]): Significant cytotoxicity could not be confirmed | reduction of punched hole size (Normal human fibroblasts [2]; final concentration of farrerol 10^−5 M): promoted clearly | reduction of punched hole size (Normal human fibroblasts [2]; final concentration of farrerol 10^−6 M): promoted clearly | promotion of reduction of punched hole size (Normal human fibroblasts [2]; final concentration of farrerol 10^−7 M): unclear | cell shape [3]: no change in cell shape | degree of filling or reduction of the defect area (Normal human fibroblasts [4]; compared with the rest of the seven single-ingredient fractions of Hypericum erectum extract): highest degree of filling or reduction of the defect area | concentration exerting a wound-healing promoting effect (Normal human fibroblasts [4]; effective concentration read from defect area reduction): at least 10^−6 M | reduction of the punch hole (defect area) (Normal human fibroblasts [4]; final concentration of farrerol 10^−5 M, FIG. 9): distinctly promoted | reduction of the punch hole (defect area) (Normal human fibroblasts [4]; final concentration of farrerol 10^−6 M, FIG. 9): distinctly promoted | promotion of reduction of the punch hole (defect area) (Normal human fibroblasts [4]; final concentration of farrerol 10^−7 M, FIG. 9): obscure | amount of procollagen produced ([5]; another system: farrerol added at the time of culturing fibroblasts, then keratinocyte culture supernatant added): did not show a large change in amount of procollagen produced | amount of procollagen produced ([5]; fibroblasts cultured 48 hours with supernatant of keratinocytes treated with farrerol 10^−6, 10^−7, 10^−8 M, FIG. 8): increased significantly depending on the concentration of farrerol | movement of fibroblasts from the wound area (Normal human fibroblasts [6]; 0.1% heparin/10% FBS-DMEM and 1.0% heparin/10% FBS-DMEM): no difference in cell movement | movement of fibroblasts from the wound area (Normal human fibroblasts [6]; unsupplemented 10% FBS-DMEM, FIG. 2): longer movement distance of fibroblasts and a more active cellular movement | OD value (450 nm) ([7]; dependence on concentration of farrerol, FIG. 5): increased depending on the concentration of farrerol | OD value, reproducibility ([7]; doubled number of seeded cells, 6×10^3 cells/well): almost the similar result could be obtained

Source: patent US20110021619A1, “EXTERNAL PREPARATION FOR SKIN CONTAINING FLAVANONE DERIVATIVE” (priority 2006, published 2011)
